Patent publication US20260297118A1, “SUBSTITUTED PYRIMIDINONE AND AZAPYRIMIDINONE COMPOUNDS, COMPOSITIONS, AND USES THEREOF” (LAKEWOOD AMEDEX, INC., priority 2023, published 2026)

Assays:
Type in all cases: cell-based
[1] = test system: Staphylococcus aureus (43330); assay: MIC, broth microdilution, Staphylococcus aureus (43330); details: pH 3, Mueller Hinton Broth, 18 to 24 hours, read-out: MIC
Method: (§1) MIC testing is conducted using the broth (Mueller Hinton Broth) microdilution procedures relevant to each organism group as established by the Clinical and Laboratory Standards Institute (CLSI; 3-7). MIC plates are prepared in accordance with CLSI (3-7). To prepare the test plates, automated liquid handlers are used to conduct serial dilutions and liquid transfers. Automated liquid handlers utilized in this study include the Multidrop 384 (Labsystems, Helsinki, Finland) and the Biomek 2000 (Beckman Coulter, Fullerton CA). The solution is diluted to desired pH using 1 M Citric Acid or 1 M NaOH buffer. A standardized inoculum of each test organism is prepared per CLSI methods (3, 5-7) to equal a 0.5 McFarland standard in the appropriate media followed by an additional 1:20 dilution (1:10 for anaerobes).
(§2) The plates are then inoculated with 10 μL of the diluted 0.5 McFarland suspension using the Biomek 2000 from low to high drug concentration, resulting in a final concentration of approximately 5×10^5 CFU/mL per well. An un-inoculated plate is incubated for the purpose of assessing solubility of the drug in the test media. The plates are stacked 3 to 4 high, covered with a sterile lid on the top plate, and incubated for 18 to 24 hours according to CLSI. The MIC is recorded as the lowest concentration of respective compound that inhibited visible growth of the organism.

Escherichia coli (25922) = assay: MIC, broth microdilution, Escherichia coli (25922); details: pH 3, Mueller Hinton Broth, 18 to 24 hours, read-out: MIC
Method: as §1, §2

[2] = test system: Pseudomonas aeruginosa (27853); assay: MIC, broth microdilution, Pseudomonas aeruginosa (27853); details: pH 3, Mueller Hinton Broth, 18 to 24 hours, read-out: MIC
Method: as §1, §2

Candida albicans (22972) = assay: MIC, broth microdilution, Candida albicans (22972); details: pH 3, Mueller Hinton Broth, 18 to 24 hours, read-out: MIC
Method: as §1, §2

E. faecalis ATCC-29212 = assay: MIC, broth microdilution, E. faecalis ATCC-29212; parameters: unit not given beside the values; details: E. faecalis ATCC-29212, Gram +ve; pH 3; 18 to 24 hours
Method: as §1, §2

E. faecalis MMX-3353 = assay: MIC, broth microdilution, E. faecalis MMX-3353; details: E. faecalis MMX-3353, Gram +ve; pH 3; 18 to 24 hours
Method: as §1, §2

E. faecium ATCC-35667 = assay: MIC, broth microdilution, E. faecium ATCC-35667; details: E. faecium ATCC-35667, Gram +ve; pH 3; 18 to 24 hours
Method: as §1, §2

E. faecium MMX-3355 = assay: MIC, broth microdilution, E. faecium MMX-3355; parameters: unit not given beside the values; details: E. faecium MMX-3355, Gram +ve; pH 3; 18 to 24 hours
Method: as §1, §2

S. agalactiae ATCC-13813 = assay: MIC, broth microdilution, S. agalactiae ATCC-13813; parameters: unit not given beside the values; details: S. agalactiae ATCC-13813, Gram +ve; pH 3; 18 to 24 hours
Method: as §1, §2

S. aureus ATCC -3591 = assay: MIC, broth microdilution, S. aureus ATCC -3591; parameters: unit not given beside the values; details: S. aureus ATCC -3591, Gram +ve; pH 3; 18 to 24 hours
Method: as §1, §2

S. aureus ATCC-29213 = assay: MIC, broth microdilution, S. aureus ATCC-29213; parameters: unit not given beside the values; details: S. aureus ATCC-29213, Gram +ve; pH 3; 18 to 24 hours
Method: as §1, §2

[3] = test system: S. dysgalactiae ATCC-6644; assay: MIC, broth microdilution, S. dysgalactiae ATCC-6644; parameters: unit not given beside the values; details: S. dysgalactiae ATCC-6644, Gram +ve; pH 3; 18 to 24 hours
Method: as §1, §2

[4] = test system: S. haemolyticus ATCC-29970; assay: MIC, broth microdilution, S. haemolyticus ATCC-29970; details: S. haemolyticus ATCC-29970, Gram +ve; pH 3; 18 to 24 hours
Method: as §1, §2

S. pyogenes ATCC-49399 = assay: MIC, broth microdilution, S. pyogenes ATCC-49399; parameters: unit not given beside the values; details: S. pyogenes ATCC-49399, Gram +ve; pH 3; 18 to 24 hours
Method: as §1, §2

[5] = test system: S. saprophyticus ATCC-49907; assay: MIC, broth microdilution, S. saprophyticus ATCC-49907; parameters: unit not given beside the values; details: S. saprophyticus ATCC-49907, Gram +ve; pH 3; 18 to 24 hours
Method: as §1, §2

A. baumannii ATCC-19606 = assay: MIC, broth microdilution, A. baumannii ATCC-19606; parameters: unit not given beside the values; details: A. baumannii ATCC-19606, Gram −ve; pH 3; 18 to 24 hours
Method: as §1, §2

[6] = test system: A. radioresistens MMX-8551; assay: MIC, broth microdilution, A. radioresistens MMX-8551; parameters: unit not given beside the values; details: A. radioresistens MMX-8551, Gram −ve; pH 3; 18 to 24 hours
Method: as §1, §2

C. freundii CDC-0157 = assay: MIC, broth microdilution, C. freundii CDC-0157; parameters: unit not given beside the values; details: C. freundii CDC-0157, Gram −ve; pH 3; 18 to 24 hours
Method: as §1, §2

C. striatum ATCC-6940 = assay: MIC, broth microdilution, C. striatum ATCC-6940; details: C. striatum ATCC-6940, Gram +ve; pH 3; 18 to 24 hours
Method: as §1, §2

E. cloacae ATCC BAA-2468 = assay: MIC, broth microdilution, E. cloacae ATCC BAA-2468; parameters: unit not given beside the values; details: E. cloacae ATCC BAA-2468, Gram −ve; pH 3; 18 to 24 hours
Method: as §1, §2

E. coli ATCC-25922 = assay: MIC, broth microdilution, E. coli ATCC-25922; parameters: unit not given beside the values; details: E. coli ATCC-25922, Gram −ve; pH 3; 18 to 24 hours
Method: as §1, §2

E. coli MMX-8870 = assay: MIC, broth microdilution, E. coli MMX-8870; details: E. coli MMX-8870, Gram −ve; pH 3; 18 to 24 hours
Method: as §1, §2

H. influenzae ATCC-49247 = assay: MIC, broth microdilution, H. influenzae ATCC-49247; parameters: unit not given beside the values; details: H. influenzae ATCC-49247, Gram −ve; pH 3; 18 to 24 hours
Method: as §1, §2

[7] = test system: K. pneumoniae ATCC BAA-2146; assay: MIC, broth microdilution, K. pneumoniae ATCC BAA-2146; parameters: unit not given beside the values; details: K. pneumoniae ATCC BAA-2146, Gram −ve; pH 3; 18 to 24 hours
Method: as §1, §2

K. pneumoniae ATCC-43816 = assay: MIC, broth microdilution, K. pneumoniae ATCC-43816; parameters: unit not given beside the values; details: K. pneumoniae ATCC-43816, Gram −ve; pH 3; 18 to 24 hours
Method: as §1, §2

M. morganii CDC-0519 = assay: MIC, broth microdilution, M. morganii CDC-0519; parameters: unit not given beside the values; details: M. morganii CDC-0519, Gram −ve; pH 3; 18 to 24 hours
Method: as §1, §2

P. aeruginosa ATCC-27853 = assay: MIC, broth microdilution, P. aeruginosa ATCC-27853; parameters: unit not given beside the values; details: P. aeruginosa ATCC-27853, Gram −ve; pH 3; 18 to 24 hours
Method: as §1, §2

P. mirabilis CDC-0155 = assay: MIC, broth microdilution, P. mirabilis CDC-0155; parameters: unit not given beside the values; details: P. mirabilis CDC-0155, Gram −ve; pH 3; 18 to 24 hours
Method: as §1, §2

| Structure (SMILES) | MIC [1] | MIC (Escherichia coli (25922)) | MIC [2] | MIC (Candida albicans (22972)) | MIC (E. faecalis ATCC-29212) | MIC (E. faecalis MMX-3353) | MIC (E. faecium ATCC-35667) | MIC (E. faecium MMX-3355) | MIC (S. agalactiae ATCC-13813) | MIC (S. aureus ATCC -3591) | MIC (S. aureus ATCC-29213) | MIC [3] | MIC [4] | MIC (S. pyogenes ATCC-49399) | MIC [5] | MIC (A. baumannii ATCC-19606) | MIC [6] | MIC (C. freundii CDC-0157) | MIC (C. striatum ATCC-6940) | MIC (E. cloacae ATCC BAA-2468) | further results |
| --- | --- | --- | --- | --- | --- | --- | --- | --- | --- | --- | --- | --- | --- | --- | --- | --- | --- | --- | --- | --- | --- |
| CCCCOP(=O)(O)OC[C@H]1O[C@@H](n2ccc(N(C)C)nc2=O)C(F)(F)[C@@H]1O [LAK-023, (2R,3S,5R)-5-(4-N,N-dimethylamino-2-oxopyrimidin-1(2H)-yl)-2,2-difluoro-3-hydroxytetrahydrofuranyl-2-methyl butyl phosphate] | 3800 µg/mL | 800 µg/mL | 400 µg/mL | > 12500 µg/mL | 3.13 | 6.25 | 3.13 | 1.56 | 0.39 | 6.25 | 1.56 | 0.78 | 0.78 | 1.56 | 1.56 | 0.78 | 0.78 | 1.56 | 1.56 | 0.78 | MIC (E. coli ATCC-25922): 0.78; MIC (E. coli MMX-8870): 0.78; MIC (H. influenzae ATCC-49247): 0.39; MIC [7]: 0.78; MIC (K. pneumoniae ATCC-43816): 1.56; MIC (M. morganii CDC-0519): 3.13; MIC (P. aeruginosa ATCC-27853): 0.39; MIC (P. mirabilis CDC-0155): 1.56 |
| CCCCOP(=O)(O)OC[C@H]1O[C@@H](n2ccc(N)nc2=O)C(F)(F)[C@@H]1O [LAI-006, ((2R,3R,5R)-5-(4-amino-2-oxopyrimidin-1(2H)-yl)-4,4-difluoro-3-hydroxytetrahydrofuran-2-yl)methyl butyl hydrogen phosphate] | 2300 µg/mL | 600 µg/mL | 800 µg/mL | 50000 µg/mL | 0.39 | 3.13 | 1.56 | 3.13 | 0.10 | 3.13 | 1.56 | 0.05 | 0.10 | 0.39 | 0.10 | 0.39 | 0.39 | 3.13 | 0.78 | 0.39 | MIC (E. coli ATCC-25922): 0.39; MIC (E. coli MMX-8870): 0.78; MIC (H. influenzae ATCC-49247): 0.78; MIC [7]: 0.78; MIC (K. pneumoniae ATCC-43816): 0.78; MIC (M. morganii CDC-0519): 3.13; MIC (P. aeruginosa ATCC-27853): 0.78; MIC (P. mirabilis CDC-0155): 3.13 |
